Where “and” joins values, the source holds several entries; their conditions need not be identical. Identical values can stand only once. Counter-ions that a name gives are not always drawn. Like-named read-outs stand apart in the source and are kept apart here.
Tests used:
[1] = Toxicity in HT4-6C cells by visual grading of cell morphology; details: human
Method: (§1) Selected compounds of the invention and PFA were tested for activity in HT4-6C cell by procedures disclosed in B. A. Larder et al., Science, 243:1731-1734 (1989). […] The TC50 values were determined using the following visual grading scale after 3 days to exposure to the tested drug compound: 4—normal appearance; 3—slight reduction of normal cells; 2-50% of cells appear normal; 1—sparse number of normal appearing cells; 0—no living cells. Values reported in the Table below are mean ±standard deviation.

HIV-1 [2] = details: for reduction of the number of viral plaques: at 1 μM, the highest concentration achievable in the growth medium
From the text: (§2) (EC50 is concentration to reduce HIV plaques by 50% and expressed as mean ±standard deviation).

HIV-1LAI = assay: HIV plaque reduction assay, wild-type strain; assay type: cell-based; details: Human immunodeficiency virus 1
Method: (§3) Compounds of the invention were tested in a plaque-forming assay of HIV-1 proliferation in a human CD4+lymphocytic cell line (HT-4) by the procedures described in K. Y. Hostetler et al., J. Biol. Chem., 265:6112-6117 (1990); and K. Y. Hostetler et al., J. Biol. Chem., 266:11714-11717 (1991). […] (EC50 is concentration to reduce HIV plaques by 50% and expressed as mean ±standard deviation).
(§4) The assays were conducted by procedures of Example 27 above and as disclosed in K. Y. Hostetler et al., J. Biol. Chem., 265:6112-6117 (1990); and K. Y. Hostetler et al., J. Biol. Chem., 266:11714-11717 (1991).

LAI-E89K = assay: HIV plaque reduction assay, PFA-resistant strain; assay type: cell-based, HIV-1
Method: as §3, §4

A018-post [3] = assay: HIV plaque reduction assay, AZT-resistant strain; assay type: cell-based, HIV-1; details: Human immunodeficiency virus 1
Method: as §3, §4

HT4-6C cells = assay: Toxicity in HT4-6C cells by visual grading of cell morphology; details: for Selectivity Index: TC50/EC50, HT4-6C cells
Method: as §1

[4] = tested on: human T-Lymphoblastic Leukemia Cells (CEM cells); assay: Toxicity in CEM cells by propidium iodide staining and flow cytometry; assay type: cell-based; details: for Selectivity Index: TC50 in CEM cells / EC50; for CC50: rapidly dividing CEM cells, viable cell numbers, read-out: TC50 (the source's name)
Method: TC50 values were also assessed by exposing rapidly dividing human T-Lymphoblastic Leukemia Cells (CEM cells) to selected compounds of the invention and PFA. Viable cell numbers were determined by propidium iodide staining and fluorescent flow cytometry according to procedures disclosed in Dangl et al., Cytometry, 2:395-401 (1982).

HIV-1 [5] = assay: microbe, parasite or virus in culture; details: for EC50: Human immunodeficiency virus 1, read-out: EC50(HIV-1)
From the text: as §2

A018-post [6] = details: AZT-resistant, AZT data from Larder et al., Science 1989; cited from earlier work

For CCCCCCCCCCCCCCCCCCOC(=O)O[PH](=O)OC[C@H]1O[C@@H](n2cc(C)c(=O)[nH]c2=O)C[C@@H]1N=[N+]=[N-] (some centres unmarked) [Example 20, 3′-azido-3′-deoxy-5′-O-(1-octadecyloxycarbonyloxyphosphinyl)thymidine], the melting point was 224 °C (dec.).

With CCCCCCCCCCCCCCCCCCOC(=O)P(=O)(O)OC [Example 8, Sodium Methyl 1-octadecyloxycarbonylphosphonate] the CC50 at 3 days [1] was 10 µM and the “reduction of the number of viral plaques” value (HIV-1 [2]; HT-4 cells) was 35%.

For CCCCCCCCCCCCCCCCCCCCCCOC(=O)P(=O)(O)OC[C@H]1O[C@@H](n2cc(C)c(=O)[nH]c2=O)C[C@@H]1N=[N+]=[N-] [Example 22], the EC50 (HIV-1LAI) was 0.32 ± 0.2 µM, the EC50 (LAI-E89K; Human immunodeficiency virus 1) was 0.17 ± 0.11 µM and the EC50 (A018-post [3]) was 0.77 ± 1.1 µM. For the same molecule, the CC50 at 3 days [1] was 320 µM, the “Selectivity Index” value (HT4-6C cells) was 1000 and the “Selectivity Index” value [4] was 291. The CC50 [4] was 93 µM.

With CCCCCCCCCCCCCCCCOCCCOP(=O)(O)C(=O)OC[C@H]1O[C@@H](n2cc(C)c(=O)[nH]c2=O)C[C@@H]1N=[N+]=[N-] [Example 25] the EC50 (LAI-E89K; LAI-E89K, PFA-resistant, mean ± SD of 3 experiments, Example 25: single test value, read-out: EC50) was 1.3 µM and the CC50 [4] was 65 µM.

With CCCCCCCCCCCCCCCCCCCCCCOC(=O)O[PH](=O)OC[C@H]1O[C@@H](n2cc(C)c(=O)[nH]c2=O)C[C@@H]1N=[N+]=[N-] (some centres unmarked) [Example 22, 3′-Azido-3′-deoxy-5′-O-(1-docosanyloxycarbonyloxyphosphinyl) thymidine] the melting point was 238 °C (dec.).

With O=C(O)P(=O)(O)O [PFA, phosphonoformic acid, reference compound] the EC50 (HIV-1LAI) was 133 ± 54 µM, the EC50 (LAI-E89K; Human immunodeficiency virus 1) was greater than 1000 µM and the IC50 (HIV-1 [5]; Human immunodeficiency virus 1, read-out: IC50 (HIV-1)) was 133 µM. It also gave an EC50 (A018-post [3]) of 65 ± 13 µM.

CCCCCCCCCCCCCCCCCCCCOC(=O)P(=O)(O)OC[C@H]1O[C@@H](n2cc(C)c(=O)[nH]c2=O)C[C@@H]1N=[N+]=[N-] [Example 21] showed an EC50 (HIV-1LAI) of 0.14 ± 0.16 µM, an EC50 (LAI-E89K; Human immunodeficiency virus 1) of 0.009 ± 0.007 µM and an EC50 (HIV-1 [5]) of 0.05 µM. The EC50 (A018-post [3]) was 0.53 ± 0.68 µM, the CC50 at 3 days [1] was 32 µM and the “Selectivity Index” value (HT4-6C cells) was 228. For the same molecule, the cytotoxicity (HT4-6C cells; at 0.1-1.0 μM) was “slight to moderate”, the cytotoxicity (HT4-6C cells; at 10 and 100 μM) was “significant” and the therapeutic selectivity (HT4-6C cells; toxic concentration over EC50(HIV-1)) was “ca. 200”. For the same molecule, the “fold less active than AZT” value (HIV-1 [2]; EC50(HIV-1) compared with AZT) was 7 fold, the “times more active than PFA” value (HIV-1 [2]; EC50(HIV-1) compared with PFA) was 2,800 times and the “Selectivity Index” value [4] was 257. For the same molecule, the CC50 [4] was 36 µM.

Work on Cc1cn([C@H]2C[C@H](N=[N+]=[N-])[C@@H](COP(=O)(O)C(=O)O[C@H]3CC[C@@]4(C)C(=CC[C@H]5[C@@H]6CC[C@H]([C@H](C)CCCC(C)C)[C@@]6(C)CC[C@@H]54)C3)O2)c(=O)[nH]c1=O [Example 23] yielded an IC50 (HIV-1 [2]; read-out: IC50 (HIV-1), plaque-forming assay, HT-4 cells) of 0.25 µM.

With CCCCCCCCCCCCCCCCCCCCOC(=O)O[PH](=O)OC[C@H]1O[C@@H](n2cc(C)c(=O)[nH]c2=O)C[C@@H]1N=[N+]=[N-] (some centres unmarked) [Example 21] the melting point was 230 °C (dec.).

In the case of CCCCCCCCCCCCCCCCCCOC(=O)P(=O)(O)OC (as salt: sodium) [Example 8, Sodium Methyl 1-octadecyloxycarbonylphosphonate], the melting point is reported as 92 to 93 °C.

Molecule CCCCCCCCCCCCCCCCCCOC(=O)P(=O)(O)OC[C@H]1O[C@@H](n2cc(C)c(=O)[nH]c2=O)C[C@@H]1N=[N+]=[N-] [Example 20] has an EC50 (HIV-1LAI) of 0.1 ± 0.15 µM, an EC50 (LAI-E89K; Human immunodeficiency virus 1) of 0.13 ± 0.14 µM and an EC50 (A018-post [3]) of 0.3 ± 0.32 µM. The CC50 at 3 days [1] was 10 µM, the “Selectivity Index” value (HT4-6C cells) was 100 and the “Selectivity Index” value [4] was 280. For the same molecule, the CC50 [4] was 28 µM.

With CCCCCCCCCCCCCCCCCCCCOC(=O)P(=O)(O)OC [Example 9, Sodium Methyl 1-eicosanyloxycarbonylphosphonate] the CC50 at 3 days [1] was 10 µM and the “reduction of the number of viral plaques” value (HIV-1 [2]; HT-4 cells) was 35%.

For Cc1cn([C@H]2C[C@H](N=[N+]=[N-])[C@@H](CO)O2)c(=O)[nH]c1=O [AZT, 3′-azido-3′-deoxythymidine], the EC50 (HIV-1LAI) was 0.013 ± 0.006 µM, the EC50 (LAI-E89K; Human immunodeficiency virus 1) was 0.009 ± 0.005 µM and the EC50 (HIV-1 [5]) was 0.007 µM. For the same molecule, the EC50 (A018-post [6]) was 4 µM and 2.3 µM.

With CCCCCCCCCCCCCCCCCCCCOC(=O)P(=O)(O)OC (as salt: sodium) [Example 9, Sodium Methyl 1-eicosanyloxycarbonylphosphonate] the melting point was 95 to 96 °C.

From patent US6686462B2 (The Regents of the University of California, priority 1997, dated 2004)
